The values below come from ChEMBL document CHEMBL3608294, “Epoxylathyrol Derivatives: Modulation of ABCB1-Mediated Multidrug Resistance in Human Colon Adenocarcinoma and Mouse T-Lymphoma Cells” (J Nat Prod, 2015).

Data set [1] has as its target T1, ATP-dependent translocase ABCB1 (Homo sapiens, UniProt P08183). Briefly: Inhibition of human ABCB1 expressed in mouse L5178Y cells assessed as fluorescence activity ratio at 2 uM incubated for 10 mins by flow cytometry based rhodamine-123 accumulation assay (reference value: 0.78). The class given is cell-based. (In general: In flow cytometry, cells or beads pass a laser one at a time.)

Data set [2] deals with T1, ATP-dependent translocase ABCB1. In words: Inhibition of human ABCB1 expressed in mouse L5178Y cells assessed as fluorescence activity ratio at 20 uM incubated for 10 mins by flow cytometry based rhodamine-123 accumulation assay (reference value: 0.78). It is filed as cell-based.
For data set [3] the target is unchanged. Briefly: Inhibition of ABCB1 in multidrug resistant human COLO320 cells assessed as fluorescence activity ratio at 2 uM incubated for 10 mins by flow cytometry based rhodamine-123 accumulation assay (reference value: 0.62).
Data set [4] has the same target. In words: Inhibition of ABCB1 in multidrug resistant human COLO320 cells assessed as fluorescence activity ratio at 20 uM incubated for 10 mins by flow cytometry based rhodamine-123 accumulation assay (reference value: 0.62).
The subject of data set [5] is L5178Y. In words: Antiproliferative activity against chemosensitive wild type parental mouse L5178Y cells incubated for 72 hrs by MTT assay. It is filed as functional, cell-based. (In general: Tetrazolium dyes change colour on reduction, which living cells bring about.)
The test system of data set [6] is L5178Y. In words: Antiproliferative activity against human ABCB1 expressing mouse L5178Y cells incubated for 72 hrs by MTT assay. The class given is functional, cell-based.
For data set [7], the system named is L5178Y. Briefly: Selectivity index, ratio of antiproliferative IC50 for wild type parental mouse L5178Y cells to antiproliferative IC50 for human ABCB1 expressing mouse L5178Y cells. The class given is functional.
The nature of data set [8]: Antiproliferative activity against chemosensitive human COLO205 cells incubated for 72 hrs by MTT assay. The class given is functional, cell-based. The conditions noted are these: COLO 205, 72 h.
Data set [9] in a line: Antiproliferative activity against multidrug resistant human COLO320 cells incubated for 72 hrs by MTT assay. It is filed as functional. The conditions noted are these: COLO 320, 72 h.
Data set [10] deals with L5178Y. In words: Cytotoxicity against chemosensitive wild type parental mouse L5178Y cells incubated for 24 hrs by MTT assay. It is filed as functional, cell-based.
The subject of data set [11] is L5178Y. In words: Cytotoxicity against human ABCB1 expressing mouse L5178Y cells incubated for 24 hrs by MTT assay. The class given is functional, cell-based.
Data set [12] deals with COLO 205. Briefly: Cytotoxicity against chemosensitive human COLO205 cells incubated for 24 hrs by MTT assay. It is filed as functional, cell-based. Conditions: COLO 205, 24 h.
Data set [13] in a line: Cytotoxicity against multidrug resistant human COLO320 cells incubated for 24 hrs by MTT assay. It is filed as functional, cell-based. The conditions noted are these: COLO 320, 24 h.
For data set [14], the target named is T1, ATP-dependent translocase ABCB1. Briefly: Inhibition of human ABCB1 expressed in mouse L5178Y cells assessed as potentiation of 2 mg/ml doxorubicin-induced cytotoxicty by measuring combination index at 5:1 compound to doxorubicin ratio incubated for 48 hrs by MTT assay. It is filed as cell-based.
Data set [15] in a line: Selectivity index, ratio of antiproliferative IC50 for chemosensitive human COLO205 cells to antiproliferative IC50 for multidrug resistant human COLO320 cells. It is filed as functional, COLO 205.

T1 sequence (P08183 whole entry): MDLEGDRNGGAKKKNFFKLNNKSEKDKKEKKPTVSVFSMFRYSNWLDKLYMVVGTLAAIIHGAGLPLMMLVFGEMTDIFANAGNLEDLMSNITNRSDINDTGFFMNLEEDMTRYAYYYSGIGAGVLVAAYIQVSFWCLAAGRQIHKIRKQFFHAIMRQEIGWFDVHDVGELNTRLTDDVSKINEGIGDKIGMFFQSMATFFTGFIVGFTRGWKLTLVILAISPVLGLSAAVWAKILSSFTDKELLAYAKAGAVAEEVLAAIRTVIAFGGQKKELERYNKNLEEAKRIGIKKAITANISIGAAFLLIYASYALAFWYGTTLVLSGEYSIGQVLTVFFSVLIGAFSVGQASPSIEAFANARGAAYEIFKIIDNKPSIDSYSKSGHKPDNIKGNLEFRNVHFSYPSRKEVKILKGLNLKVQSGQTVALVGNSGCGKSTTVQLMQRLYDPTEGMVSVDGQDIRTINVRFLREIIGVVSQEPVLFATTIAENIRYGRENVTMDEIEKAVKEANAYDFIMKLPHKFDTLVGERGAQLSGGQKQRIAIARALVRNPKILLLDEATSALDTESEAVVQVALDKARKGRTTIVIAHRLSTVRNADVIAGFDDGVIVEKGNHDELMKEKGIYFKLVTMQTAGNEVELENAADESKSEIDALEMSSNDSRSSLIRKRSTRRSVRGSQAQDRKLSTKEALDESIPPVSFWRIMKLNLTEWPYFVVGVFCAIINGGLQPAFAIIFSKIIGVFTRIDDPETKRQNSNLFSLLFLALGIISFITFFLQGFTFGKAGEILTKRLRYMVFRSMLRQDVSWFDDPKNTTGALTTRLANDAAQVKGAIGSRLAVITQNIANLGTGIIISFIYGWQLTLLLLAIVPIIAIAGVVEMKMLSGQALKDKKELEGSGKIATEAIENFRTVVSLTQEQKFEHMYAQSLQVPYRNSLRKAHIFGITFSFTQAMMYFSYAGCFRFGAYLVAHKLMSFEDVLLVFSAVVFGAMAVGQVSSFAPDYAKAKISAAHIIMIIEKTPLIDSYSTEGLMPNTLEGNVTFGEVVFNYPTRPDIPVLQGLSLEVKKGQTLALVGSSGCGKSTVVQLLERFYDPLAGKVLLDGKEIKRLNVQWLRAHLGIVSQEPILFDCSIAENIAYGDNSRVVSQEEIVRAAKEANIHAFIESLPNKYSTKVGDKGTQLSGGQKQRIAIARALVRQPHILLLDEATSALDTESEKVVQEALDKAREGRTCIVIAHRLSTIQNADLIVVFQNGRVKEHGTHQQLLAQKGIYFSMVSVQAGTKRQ

The IC50 is the point on the concentration scale where inhibition reaches its midpoint. For `C/C1=C\[C@@H]2[C@H](CC[C@]3(CO3)[C@H](OC(=O)c3ccc(-c4ccccc4)cc3)[C@H]3[C@@H](OC(=O)c4ccc(-c5ccccc5)cc4)[C@@H](C)C[C@]3(O)C1=O)C2(C)C`, the Ratio in data set [1] is on record as 22.82; in data set [2], 30.97; in data set [3] it was 2.7; in data set [4], 2.64. The IC50 in data set [5] is 74.3 µM; in data set [6], above 100 µM; in data set [8] it was above 100 µM; in data set [9] it was above 100 µM; in data set [10], above 100 µM; in data set [11], above 100 µM. The IC50 in data set [12] and in [13] was above 100 µM each time. The “Ratio IC50” value in data set [7] is recorded as below 0.74.
As for `C/C1=C\[C@@H]2[C@H](CC[C@]3(CO3)[C@H](OC(=O)N3CCOCC3)[C@H]3[C@@H](OC(=O)N4CCOCC4)[C@@H](C)C[C@]3(O)C1=O)C2(C)C`, the Ratio in data set [1] is on record as 1.22; in data set [2], 1.38; in data set [3], 1.09; in data set [4], 1.42. The concentration for half-maximal inhibition (IC50) in data set [5], in data set [6], in data set [8], in data set [9], in data set [10] and in data set [11] was above 100 µM throughout. Besides, the IC50 in [12] and in [13] was above 100 µM each time.
Take `C/C1=C\[C@@H]2[C@H](CC[C@]3(CO3)[C@H](OC(=O)c3ccc(C(F)(F)F)cc3)[C@H]3[C@@H](OC(=O)c4ccc(C(F)(F)F)cc4)[C@@H](C)C[C@]3(O)C1=O)C2(C)C`: the Ratio was determined as 38.72 in [1], 38.97 in data set [2], 2.52 in data set [3] and 3.39 in data set [4]. Besides, the IC50 in data set [5], in data set [6], in data set [8], in [9], in data set [10] and in data set [11] was above 100 µM in each case. Moreover, the IC50 in data set [12] and in data set [13] was above 100 µM throughout.
`CCN(CC)C(=O)O[C@@H]1[C@@H]2[C@@H](OC(=O)N(CC)CC)[C@]3(CC[C@H]4[C@@H](/C=C(\C)C(=O)[C@@]2(O)C[C@@H]1C)C4(C)C)CO3`: the Ratio in [1] was found to be 1.71; in data set [2] it was 10.62; in data set [3], 1.54; in data set [4] it was 3.54. Also, the IC50 in data set [5], in [6], in [8], in data set [9], in data set [10] and in data set [11] was above 100 µM in each case. In addition, the IC50 in data set [12] and in data set [13] was above 100 µM each time.
On to `C/C1=C\[C@@H]2[C@H](CC[C@]3(CO3)[C@H](OC(=O)c3ccco3)[C@H]3[C@@H](OC(=O)c4ccco4)[C@@H](C)C[C@]3(O)C1=O)C2(C)C`, for which the Ratio in data set [1] is on record as 6.09; in [2] it was 42.56; in data set [3], 1.67; in data set [4] it was 5.5. The CI in data set [14] was 0.053. The IC50 was 24.8 µM in data set [5]; above 50 µM in data set [6]; 27.8 µM in data set [8]; 28.4 µM in [9]; above 50 µM in [10]; above 50 µM in data set [11]. For the same compound, the half-maximal inhibitory concentration (IC50) in [12] and in [13] was above 50 µM throughout. The “Ratio IC50” value in data set [7] was below 0.5; in data set [15], 0.98.
`CO[C@H]1[C@@H]2[C@H](CC[C@]3(CO)O[C@@H]3[C@H]3[C@@H](O)[C@@H](C)C[C@]3(O)C(=O)[C@@H]1C)C2(C)C`: the Ratio is on record as 1.22 in [1], 18.3 in data set [2], 1.1 in data set [3] and 2.26 in data set [4]. Moreover, the IC50 in data set [5], in data set [6], in data set [8], in data set [9], in data set [10] and in data set [11] was above 100 µM each time. Moreover, the IC50 in data set [12] and in data set [13] was above 100 µM throughout.
`C/C1=C\[C@@H]2[C@H](CC[C@]3(CO3)[C@H](O)[C@H]3[C@@H](O)[C@@H](C)C[C@]3(O)C1=O)C2(C)C`: the Ratio in data set [1] turned out to be 1.15; in data set [2], 1.49; in data set [3], 1.02; in data set [4] it was 1.05. Moreover, the half-maximal inhibitory concentration (IC50) in data set [5], in [6], in data set [8], in data set [9], in data set [10] and in data set [11] was above 100 µM each time. Further, the IC50 in data set [12] and in data set [13] was above 100 µM in each case.
Turning to `CCO[C@@H]1[C@@H]2C(=O)C(O)(C[C@H](C)[C@@H]2O)/C(C)=C\[C@@H]2[C@H](CC[C@@]1(O)CO)C2(C)C`, the Ratio in data set [1] was 5.85; in [2], 38.92; in data set [3], 1.5; in [4] it was 3.18. Also, the IC50 in data set [5], in [6], in data set [8], in data set [9], in [10] and in data set [11] was above 100 µM in each case. The IC50 in data set [12] and in [13] was above 100 µM in each case.
In the case of `COc1ccc(CCN(C)CCCC(C#N)(c2ccc(OC)c(OC)c2)C(C)C)cc1OC` (stereo not given), in data set [4], the Ratio is 8.95.
Regarding `C/C1=C\[C@@H]2[C@H](CC[C@@](C)(O)[C@H](O)[C@H]3[C@@H](O)[C@@H](C)C[C@]3(O)[C@H]1O)C2(C)C`, the Ratio in data set [1] was 0.54; in [2] it was 0.59; in data set [3], 1; in data set [4], 1.11. Further, the IC50 in data set [5], in data set [6], in data set [8], in [9], in [10] and in [11] was above 100 µM in each case. The IC50 in data set [12] and in data set [13] was above 100 µM each time.
Turning to `C/C1=C\[C@@H]2[C@H](CC[C@@](C)(O)[C@H](O)[C@H]3[C@@H](O)[C@@H](C)C[C@]3(O)[C@@H]1O)C2(C)C`, the Ratio in data set [1] worked out at 0.51; in data set [2], 11.61; in [3] it was 1.02; in [4], 3.81. In addition, the IC50 in data set [5], in [6], in [8], in data set [9], in data set [10] and in data set [11] was above 100 µM throughout. Besides, the IC50 in data set [12] and in data set [13] was above 100 µM in each case.
Consider `C/C1=C\[C@@H]2[C@H](CC[C@]3(CO3)[C@H](OC(=O)C34CC5CC(CC(C5)C3)C4)[C@H]3[C@@H](OC(=O)C45CC6CC(CC(C6)C4)C5)[C@@H](C)C[C@]3(O)C1=O)C2(C)C`, for which the Ratio came to 22.36 in data set [1], 31.69 in data set [2], 1.2 in [3] and 1.64 in [4]. Also, the IC50 is above 50 µM in [5]; above 50 µM in [6]; above 50 µM in [8]; 27.6 µM in [9]; above 50 µM in data set [10]; above 50 µM in data set [11]. Moreover, the half-maximal inhibitory concentration (IC50) in [12] and in data set [13] was above 50 µM each time. In addition, the “Ratio IC50” value in [15] was above 1.81.
As to `CCC(=O)OC[C@]1(O)CC[C@H]2[C@@H](/C=C(\C)C(=O)[C@@]3(O)C[C@H](C)[C@H](OC(=O)CC)[C@@H]3[C@H]1O)C2(C)C`, the Ratio is on record as 1.16 in data set [1], 2.07 in data set [2], 1.1 in [3] and 2.25 in [4]. For the same compound, the IC50 in [5], in [6], in data set [8], in data set [9], in data set [10] and in data set [11] was above 100 µM in each case. In addition, the IC50 in data set [12] and in [13] was above 100 µM in each case.
